Results from patent US12662479B2 (Foghorn Therapeutics Inc., priority 2020, dated 2026).
Counter-ions that a name gives are not always drawn.

How the values were obtained:
HiBit-BRM fusion protein = biological target: T1, HiBit-BRM fusion protein (Homo sapiens, UniProt P51531); experiment: HiBiT-BRM cell-based degradation assay (Nano-Glo HiBiT Lytic Detection, 24 h); details: HeLa cells expressing HiBiT-BRM; for DC50: read-out: BRM HiBit Degradation IC50; for BRM HiBit Degradation Maximum measured: top dose 30 μM
T1 construct: expressed in transfected cells
T1 sequence (P51531 whole entry, the tested form may be a part): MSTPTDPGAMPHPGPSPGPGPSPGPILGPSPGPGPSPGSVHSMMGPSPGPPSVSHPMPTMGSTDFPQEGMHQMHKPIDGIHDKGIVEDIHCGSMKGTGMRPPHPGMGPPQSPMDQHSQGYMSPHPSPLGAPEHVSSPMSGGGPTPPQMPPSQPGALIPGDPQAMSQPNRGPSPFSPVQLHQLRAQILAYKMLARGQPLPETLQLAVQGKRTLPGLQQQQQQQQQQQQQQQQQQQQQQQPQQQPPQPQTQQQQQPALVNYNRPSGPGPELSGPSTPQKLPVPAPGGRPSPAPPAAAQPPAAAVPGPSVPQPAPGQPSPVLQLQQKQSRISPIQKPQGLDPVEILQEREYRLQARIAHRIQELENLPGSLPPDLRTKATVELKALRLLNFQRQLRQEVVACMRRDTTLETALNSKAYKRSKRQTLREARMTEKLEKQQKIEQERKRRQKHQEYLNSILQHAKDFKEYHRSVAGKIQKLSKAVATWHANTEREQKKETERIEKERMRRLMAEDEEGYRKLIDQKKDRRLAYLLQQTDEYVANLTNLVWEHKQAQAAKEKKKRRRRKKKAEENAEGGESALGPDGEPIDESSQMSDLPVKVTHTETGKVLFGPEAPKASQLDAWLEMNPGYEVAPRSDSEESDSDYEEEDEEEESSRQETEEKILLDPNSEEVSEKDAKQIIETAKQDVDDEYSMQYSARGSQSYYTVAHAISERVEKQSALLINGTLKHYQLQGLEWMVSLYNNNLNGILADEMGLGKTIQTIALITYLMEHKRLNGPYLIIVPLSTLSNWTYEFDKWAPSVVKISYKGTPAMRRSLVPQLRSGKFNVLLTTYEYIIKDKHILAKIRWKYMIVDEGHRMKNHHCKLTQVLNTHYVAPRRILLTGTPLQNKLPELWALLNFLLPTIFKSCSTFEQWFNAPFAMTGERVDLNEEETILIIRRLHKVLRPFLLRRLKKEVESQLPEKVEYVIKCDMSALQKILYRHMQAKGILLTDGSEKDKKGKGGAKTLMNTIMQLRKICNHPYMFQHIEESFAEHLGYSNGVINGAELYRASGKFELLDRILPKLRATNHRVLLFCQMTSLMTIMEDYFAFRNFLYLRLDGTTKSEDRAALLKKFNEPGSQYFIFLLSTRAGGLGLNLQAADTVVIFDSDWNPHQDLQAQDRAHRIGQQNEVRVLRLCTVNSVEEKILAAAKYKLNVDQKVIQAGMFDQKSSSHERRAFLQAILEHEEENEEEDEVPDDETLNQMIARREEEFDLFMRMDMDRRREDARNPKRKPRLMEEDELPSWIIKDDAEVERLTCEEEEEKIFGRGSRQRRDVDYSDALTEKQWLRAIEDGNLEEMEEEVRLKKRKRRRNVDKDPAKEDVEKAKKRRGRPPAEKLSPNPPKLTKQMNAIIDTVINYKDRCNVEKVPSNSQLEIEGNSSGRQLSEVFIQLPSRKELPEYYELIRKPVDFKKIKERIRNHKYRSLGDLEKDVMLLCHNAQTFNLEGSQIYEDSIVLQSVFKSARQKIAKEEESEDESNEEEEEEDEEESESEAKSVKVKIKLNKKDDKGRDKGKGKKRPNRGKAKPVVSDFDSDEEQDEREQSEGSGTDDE
Experimental: (§1) Procedure: A stable HeLa cell line expressing HiBiT-BRM was generated. On day 0, 5000 cells were seeded in 40 μL of media into each well of 384-well cell culture plates. On day 1, cells were treated with 120 nL DMSO or 120 nL of 3-fold serially DMSO-diluted compounds (10 points in duplicate with 30 μM as final top dose). Subsequently plates were incubated for 24 h in a standard tissue culture incubator and equilibrated at room temperature for 15 minutes. Nano-Glo HiBiT Lytic Detection System (Promega N3050) reagent was freshly prepared and 20 ul was added to each well. Upon addition of this LgBit-containing reagent, the HiBiT and LgBiT proteins associate to form the luminescent NanoBiT luciferase. The plates were shaken for 10 minutes at room temperature and the bioluminescence read using an EnVision plate reader (PerkinElmer).
(§2) The degradation % was calculated using the following formula: % degradation=100%−100%×(LumSample−LumLC)/(LumHC−LumLC). DMSO treated cells are employed as High Control (HC) and 2 μM of a known BRM/BRG1 degrader standard treated cells are employed as Low Control (LC).

[1] = biological target: T2, HiBit-BRG1 fusion protein (Homo sapiens, UniProt P51532); experiment: HiBiT-BRG1 cell-based degradation assay (Nano-Glo HiBiT Lytic Detection, 24 h); details: HeLa cells expressing HiBit-BRG1 and LgBit; for DC50: read-out: BRG1 HiBit Degradation IC50; for Dmax: HeLa, top dose 30 μM, read-out: BRG1 HiBit Degradation Maximum measured
T2 construct: expressed in transfected cells
T2 sequence (P51532 whole entry, the tested form may be a part): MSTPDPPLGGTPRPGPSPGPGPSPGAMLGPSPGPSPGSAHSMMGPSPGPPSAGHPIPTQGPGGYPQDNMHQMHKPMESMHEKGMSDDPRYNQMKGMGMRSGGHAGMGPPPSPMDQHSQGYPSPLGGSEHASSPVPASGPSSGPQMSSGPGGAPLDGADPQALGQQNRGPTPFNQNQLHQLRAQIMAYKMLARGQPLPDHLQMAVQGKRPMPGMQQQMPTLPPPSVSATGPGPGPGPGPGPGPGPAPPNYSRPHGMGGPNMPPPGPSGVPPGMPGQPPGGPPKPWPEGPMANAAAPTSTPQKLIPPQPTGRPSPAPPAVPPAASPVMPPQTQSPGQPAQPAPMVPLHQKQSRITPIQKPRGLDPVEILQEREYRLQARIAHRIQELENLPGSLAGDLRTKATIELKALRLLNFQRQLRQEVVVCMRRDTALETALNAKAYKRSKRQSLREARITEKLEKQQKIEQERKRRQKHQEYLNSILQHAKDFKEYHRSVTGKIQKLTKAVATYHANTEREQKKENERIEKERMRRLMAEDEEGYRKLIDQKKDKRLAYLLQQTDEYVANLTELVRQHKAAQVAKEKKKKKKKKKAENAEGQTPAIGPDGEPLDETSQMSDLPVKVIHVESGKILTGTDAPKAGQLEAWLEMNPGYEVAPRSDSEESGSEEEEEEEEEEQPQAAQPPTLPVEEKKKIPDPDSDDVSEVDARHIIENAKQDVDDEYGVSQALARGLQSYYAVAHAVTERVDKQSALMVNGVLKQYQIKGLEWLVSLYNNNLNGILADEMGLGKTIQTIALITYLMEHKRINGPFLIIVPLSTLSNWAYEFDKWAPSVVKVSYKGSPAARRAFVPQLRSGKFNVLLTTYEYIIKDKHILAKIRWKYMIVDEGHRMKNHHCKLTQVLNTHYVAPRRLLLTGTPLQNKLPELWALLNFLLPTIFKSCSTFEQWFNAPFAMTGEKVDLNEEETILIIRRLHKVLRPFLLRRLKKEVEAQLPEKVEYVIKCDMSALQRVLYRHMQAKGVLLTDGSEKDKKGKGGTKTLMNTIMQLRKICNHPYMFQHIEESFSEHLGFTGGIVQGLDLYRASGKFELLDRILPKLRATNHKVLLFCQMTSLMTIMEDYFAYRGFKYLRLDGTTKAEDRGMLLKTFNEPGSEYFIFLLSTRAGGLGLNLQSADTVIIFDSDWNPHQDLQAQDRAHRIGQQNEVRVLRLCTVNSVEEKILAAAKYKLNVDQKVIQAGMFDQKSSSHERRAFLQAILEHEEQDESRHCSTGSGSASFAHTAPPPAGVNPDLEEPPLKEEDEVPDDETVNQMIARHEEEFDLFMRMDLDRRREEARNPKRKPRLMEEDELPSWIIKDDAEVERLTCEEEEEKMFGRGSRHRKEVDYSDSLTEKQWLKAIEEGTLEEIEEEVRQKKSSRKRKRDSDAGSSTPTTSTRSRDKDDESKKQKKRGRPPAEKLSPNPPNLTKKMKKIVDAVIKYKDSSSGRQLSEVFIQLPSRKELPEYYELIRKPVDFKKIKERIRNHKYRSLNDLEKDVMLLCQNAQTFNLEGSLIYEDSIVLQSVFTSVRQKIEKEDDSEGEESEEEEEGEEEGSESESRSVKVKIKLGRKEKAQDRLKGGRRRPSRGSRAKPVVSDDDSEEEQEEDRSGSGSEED
Experimental: as §1, with “On day 1, cells were treated with 120 nL DMSO or 120 nL of 3-fold serially DMSO-diluted compounds (10 points in duplicate with 30 μM as final top dose). Subsequently plates were incubated for 24 h in a standard tissue culture incubator and equilibrated at room temperature for 15 minutes.” left out
For measurement of BRG1 degradation, a stable HeLa cell line expressing HiBit-BRG1 and LgBit was generated. The same protocol as above was then followed.
as §2

## Cc1c(C(=O)NCC(=O)Nc2nc(-c3cccc(-c4ccnc(N(C)CC(=O)NCCOCCOCCNc5cccc6c5C(=O)N(C5CCC(=O)NC5=O)C6=O)c4)c3)cs2)cn(S(=O)(=O)C(C)C)c1C (stereo not shown) [Compound 90, N-[2-[[4-[3-[2-[[2-[2-[2-[2-[[2-(2,6-dioxo-3-piperidyl)-1,3-dioxo-isoindolin-4-yl]amino]ethoxy]ethoxy]ethylamino]-2-oxo-ethyl]-methyl-amino]-4-pyridyl]phenyl]thiazol-2-yl]amino]-2-oxo-ethyl]-1-isopropylsulfonyl-4,5-dimethyl-pyrrole-3-carboxamide]
HiBit-BRM fusion protein
  DC50: > 10 µM
  BRM HiBit Degradation Maximum measured: C (‘C’ = Maximum degradation <50%)
[1]
  DC50: > 10 µM
  Dmax: < 50%

## CS(=O)(=O)n1ccc(C(=O)N[C@@H](COCc2ccc(CNC(=O)CCCCCCCCCCNc3cccc4c3C(=O)N(C3CCC(=O)NC3=O)C4=O)cc2)C(=O)Nc2nc(-c3ccccc3)cs2)c1 (stereo partly drawn) [Compound 180, 11-[[2-(2,6-dioxopiperidin-3-yl)-1,3-dioxoisoindol-4-yl]amino]-N-[(4-[[(2S)-2-[(1-methanesulfonylpyrrol-3-yl)formamido]-2-[(4-phenyl-1,3-thiazol-2-yl)carbamoyl]ethoxy]methyl]phenyl)methyl]undecanamide]
HiBit-BRM fusion protein
  DC50: 0.1 to 1 µM
  BRM HiBit Degradation Maximum measured: B (‘B’ = Maximum degradation ≥50% and ≤75%)
[1]
  DC50: 0.1 to 1 µM
  Dmax: 50 to 75%

## CS(=O)(=O)n1ccc(C(=O)N[C@@H](CCOCCCC(=O)NCCS(=O)(=O)CCNc2cccc3c2C(=O)N(C2CCC(=O)NC2=O)C3=O)C(=O)Nc2nc(-c3ccccc3)cs2)c1 (stereo partly drawn) [Compound 253, (2S)-4-(3-[[2-(2-[[2-(2,6-dioxopiperidin-3-yl)-1,3-dioxoisoindol-4-yl]amino]ethanesulfonyl)ethyl]carbamoyl]propoxy)-2-[(1-methanesulfonylpyrrol-3-yl)formamido]-N-(4-phenyl-1,3-thiazol-2-yl)butanamide]
HiBit-BRM fusion protein
  DC50: > 10 µM
  BRM HiBit Degradation Maximum measured: C (‘C’ = Maximum degradation <50%)
[1]
  DC50: > 10 µM
  Dmax: < 50%

## Cc1ncsc1-c1ccc(CNC(=O)[C@@H]2C[C@@H](O)CN2C(=O)[C@@H](NC(=O)CCCCCCCCCCCCCC(=O)NCc2cccc(-c3cccc(-c4csc(NC(=O)CNC(=O)c5ccn(S(C)(=O)=O)c5)n4)c3)c2)C(C)(C)C)cc1 [Compound 126, N′-[(1S)-1-[(2S,4R)-4-hydroxy-2-[[4-(4-methylthiazol-5-yl)phenyl]methylcarbamoyl]pyrrolidine-1-carbonyl]-2,2-dimethyl-propyl]-N-[[3-[3-[2-[[2-[(1-methylsulfonylpyrrole-3-carbonyl)amino]acetyl]amino]thiazol-4-yl]phenyl]phenyl]methyl]pentadecanediamide]
HiBit-BRM fusion protein
  DC50: 0.1 to 1 µM
  BRM HiBit Degradation Maximum measured: B (‘B’ = Maximum degradation ≥50% and ≤75%)
[1]
  DC50: 0.1 to 1 µM
  Dmax: 50 to 75%

## CS(=O)(=O)n1ccc(C(=O)NCC(=O)Nc2nc(-c3cccc(-c4ccnc(C5(C(=O)NCCCCCCCCNC(=O)COc6cccc7c6C(=O)N(C6CCC(=O)NC6=O)C7=O)CC5)c4)c3)cs2)c1 (stereo not shown) [Compound 13, N-(2-((4-(3-(2-(1-((8-(2-((2-(2,6-dioxopiperidin-3-yl)-1,3-dioxoisoindolin-4-yl)oxy)acetamido)octyl)carbamoyl)-cyclopropyl)pyridin-4-yl)phenyl)thiazol-2-yl)amino)-2-oxoethyl)-1-(methylsulfonyl)-1H-pyrrole-3-carboxamide]
HiBit-BRM fusion protein
  DC50: > 10 µM
  BRM HiBit Degradation Maximum measured: C (‘C’ = Maximum degradation <50%)
[1]
  DC50: 0.1 to 1 µM
  Dmax: 50 to 75%

## CS(=O)(=O)n1ccc(C(=O)NCC(=O)Nc2nc(-c3cccc(-c4cccc(CNC(=O)CCCCCCCOc5cccc6c5C(=O)N(C5CCC(=O)NC5=O)C6=O)c4)c3)cs2)c1 (stereo not shown) [Compound 59, N-(2-((4-(3′-((8-((2-(2,6-dioxopiperidin-3-yl)-1,3-dioxoisoindolin-4-yl)oxy)octanamido)methyl)-[1,1′-biphenyl]-3-yl)thiazol-2-yl)amino)-2-oxoethyl)-1-(methylsulfonyl)-1H-pyrrole-3-carboxamide]
HiBit-BRM fusion protein
  DC50: > 10 µM
  BRM HiBit Degradation Maximum measured: C (‘C’ = Maximum degradation <50%)
[1]
  DC50: > 10 µM
  Dmax: < 50%

## CS(=O)(=O)n1ccc(C(=O)N[C@@H](COCc2ccc(C(=O)N3CCN(CCCCCOc4ccc5c(c4)C(=O)N(C4CCC(=O)NC4=O)C5=O)CC3)cc2)C(=O)Nc2nc(-c3ccccc3)cs2)c1 (stereo partly drawn) [Compound 233, (2S)-3-([4-[4-(5-[[2-(2,6-dioxopiperidin-3-yl)-1,3-dioxoisoindol-5-yl]oxy]pentyl)piperazine-1-carbonyl]phenyl]methoxy)-2-[(1-methanesulfonylpyrrol-3-yl)formamido]-N-(4-phenyl-1,3-thiazol-2-yl)propanamide]
HiBit-BRM fusion protein
  DC50: > 10 µM
  BRM HiBit Degradation Maximum measured: C (‘C’ = Maximum degradation <50%)
[1]
  DC50: 0.1 to 1 µM
  Dmax: 50 to 75%

## CS(=O)(=O)n1ccc(C(=O)N[C@@H](COCc2ccc(C(=O)NCCCCS(=O)(=O)CCCNc3cccc4c3C(=O)N(C3CCC(=O)NC3=O)C4=O)cc2)C(=O)Nc2nc(-c3ccccc3)cs2)c1 (stereo partly drawn) [Compound 248, N-[4-(3-[[2-(2,6-dioxopiperidin-3-yl)-1,3-dioxoisoindol-4-yl]amino]propanesulfonyl)butyl]-4-[[(2S)-2-[(1-methanesulfonylpyrrol-3-yl)formamido]-2-[(4-phenyl-1,3-thiazol-2-yl)carbamoyl]ethoxy]methyl]benzamide]
HiBit-BRM fusion protein
  DC50: 1 to 10 µM
  BRM HiBit Degradation Maximum measured: B (‘B’ = Maximum degradation ≥50% and ≤75%)
[1]
  DC50: 0.1 to 1 µM
  Dmax: 50 to 75%

## CS(=O)(=O)n1ccc(C(=O)N[C@@H](COCc2ccc(C(=O)N3CC(CN4CCN(c5ccc6c(c5)C(=O)N(C5CCC(=O)NC5=O)C6=O)CC4)C3)cc2)C(=O)Nc2nc(-c3ccccc3)cs2)c1 (stereo partly drawn) [Compound 193, (2S)-3-([4-[3-([4-[2-(2,6-dioxopiperidin-3-yl)-1,3-dioxoisoindol-5-yl]piperazin-1-yl]methyl)azetidine-1-carbonyl]phenyl]methoxy)-2-[(1-methanesulfonylpyrrol-3-yl)formamido]-N-(4-phenyl-1,3-thiazol-2-yl)propanamide; formic acid]
HiBit-BRM fusion protein
  DC50: 0.1 to 1 µM
  BRM HiBit Degradation Maximum measured: B (‘B’ = Maximum degradation ≥50% and ≤75%)
[1]
  DC50: 0.1 to 1 µM
  Dmax: > 75%

## Cc1ncsc1-c1ccc(CNC(=O)[C@@H]2C[C@@H](O)CN2C(=O)[C@@H](NC(=O)CCCCCCCNC(=O)CN(C)c2cc(-c3cccc(-c4csc(NC(=O)CNC(=O)c5ccn(S(C)(=O)=O)c5)n4)c3)ccn2)C(C)(C)C)cc1 [Compound 88]
HiBit-BRM fusion protein
  DC50: < 0.1 µM
  BRM HiBit Degradation Maximum measured: B (‘B’ = Maximum degradation ≥50% and ≤75%)
[1]
  DC50: < 0.1 µM
  Dmax: 50 to 75%

## CS(=O)(=O)n1ccc(C(=O)N[C@@H](CCOCCCC(=O)N2CCN(CCCOc3ccc4c(c3)C(=O)N(C3CCC(=O)NC3=O)C4=O)CC2)C(=O)Nc2nc(-c3ccccc3)cs2)c1 (stereo partly drawn) [Compound 255, (2S)-4-[4-[4-(3-[[2-(2,6-dioxopiperidin-3-yl)-1,3-dioxoisoindol-5-yl]oxy]propyl)piperazin-1-yl]-4-oxobutoxy]-2-[(1-methanesulfonylpyrrol-3-yl)formamido]-N-(4-phenyl-1,3-thiazol-2-yl)butanamide]
HiBit-BRM fusion protein
  DC50: > 10 µM
  BRM HiBit Degradation Maximum measured: C (‘C’ = Maximum degradation <50%)
[1]
  DC50: > 10 µM
  Dmax: < 50%

## CS(=O)(=O)n1ccc(C(=O)NCC(=O)Nc2nc(C3CCCN(C(=O)CCCCCCCCCCNc4ccc5c(c4)C(=O)N(C4CCC(=O)NC4=O)C5=O)C3)cs2)c1 (stereo not shown) [Compound 143, N-{4-[1-(11-{[2-(2,6-dioxopiperidin-3-yl)-1,3-dioxo-2,3-dihydro-1H-isoindol-5-yl]amino}undecanoyl)piperidin-3-yl]-1,3-thiazol-2-yl}-2-[(1-methanesulfonyl-1H-pyrrol-3-yl)formamido]acetamide]
HiBit-BRM fusion protein
  DC50: > 10 µM
  BRM HiBit Degradation Maximum measured: C (‘C’ = Maximum degradation <50%)
[1]
  DC50: > 10 µM
  Dmax: < 50%

## CS(=O)(=O)n1ccc(C(=O)NCC(=O)Nc2nc(C3CCCN(C(=O)CCN4CCN(c5ccc6c(c5)C(=O)N(C5CCC(=O)NC5=O)C6=O)CC4)C3)cs2)c1 (stereo not shown) [Compound 146, N-{4-[1-(3-{4-[2-(2,6-dioxopiperidin-3-yl)-1,3-dioxo-2,3-dihydro-1H-isoindol-5-yl]piperazin-1-yl}propanoyl)piperidin-3-yl]-1,3-thiazol-2-yl}-2-[(1-methanesulfonyl-1H-pyrrol-3-yl)formamido]acetamide formate]
HiBit-BRM fusion protein
  DC50: > 10 µM
  BRM HiBit Degradation Maximum measured: C (‘C’ = Maximum degradation <50%)
[1]
  DC50: > 10 µM
  Dmax: < 50%
